Assay type in all cases: functional
Conditions in all cases: read-out: DIZ

Test [1] relates to Aspergillus niger. The experiment in a line: Antifungal activity against Aspergillus niger at 0.25 mol/L after 2 to 4 days by paper disc method.
The subject of test [2] is Aspergillus niger. As to the kind of experiment: Antifungal activity against Aspergillus niger at 0.13 mol/L after 2 to 4 days by paper disc method.
Test [3] has as its system Aspergillus niger. The experiment in a line: Antifungal activity against Aspergillus niger at 0.06 mol/L after 2 to 4 days by paper disc method.
Test [4] relates to Aspergillus niger. The experiment in a line: Antifungal activity against Aspergillus niger at 0.03 mol/L after 2 to 4 days by paper disc method.
For test [5], the system named is Penicillium citrinum. The experiment in a line: Antifungal activity against Penicillium citrinum at 0.25 mol/L after 2 to 4 days by paper disc method.
Test [6] has as its system Penicillium citrinum. The experiment in a line: Antifungal activity against Penicillium citrinum at 0.13 mol/L after 2 to 4 days by paper disc method.
Test [7] deals with Penicillium citrinum. As to the kind of experiment: Antifungal activity against Penicillium citrinum at 0.06 mol/L after 2 to 4 days by paper disc method.
Test [8] relates to Penicillium citrinum. The experiment in a line: Antifungal activity against Penicillium citrinum at 0.03 mol/L after 2 to 4 days by paper disc method.
In test [9] the test system is Escherichia coli. The experiment in a line: Antibacterial activity against Escherichia coli at 0.25 mol/L after 12 to 24 hrs by paper disc method.
In test [10] the test system is Escherichia coli. The experiment in a line: Antibacterial activity against Escherichia coli at 0.13 mol/L after 12 to 24 hrs by paper disc method.
For test [11], the system named is Escherichia coli. As to the kind of experiment: Antibacterial activity against Escherichia coli at 0.06 mol/L after 12 to 24 hrs by paper disc method.
Test [12] deals with Escherichia coli. The experiment in a line: Antibacterial activity against Escherichia coli at 0.03 mol/L after 12 to 24 hrs by paper disc method.
Test [13] has as its system Staphylococcus aureus. As to the kind of experiment: Antibacterial activity against Staphylococcus aureus at 0.25 mol/L after 12 to 24 hrs by paper disc method.
Test [14] has as its system Staphylococcus aureus. As to the kind of experiment: Antibacterial activity against Staphylococcus aureus at 0.13 mol/L after 12 to 24 hrs by paper disc method.
In test [15] the test system is Staphylococcus aureus. As to the kind of experiment: Antibacterial activity against Staphylococcus aureus at 0.06 mol/L after 12 to 24 hrs by paper disc method.
Test [16] has as its system Staphylococcus aureus. The experiment in a line: Antibacterial activity against Staphylococcus aureus at 0.03 mol/L after 12 to 24 hrs by paper disc method.

For `O=C(O)CC[C@H](/N=C/C=C/c1ccccc1)C(=O)O`, the zone of inhibition at 250000 µM turned out to be 25 mm in test [1], 38 mm in test [5], 26 mm in test [9] and 19.7 mm in [13]. For the same molecule, the zone of inhibition at 130000 µM in test [2] worked out at 22.7 mm; in test [6], 25.3 mm; in [10], 15 mm; in [14], 8.2 mm. The zone of inhibition at 60000 µM in test [3] turned out to be 13.8 mm; in test [7] it was 14 mm; in test [11], 8 mm; in test [15] it was 8 mm. Besides, the zone of inhibition at 30000 µM in test [4] is 8 mm; in [8], 9.7 mm; in test [12], 8 mm; in [16], 8 mm.

Take `COc1ccc(/C=C/C=N/[C@@H](CCC(=O)O)C(=O)O)cc1`: the zone of inhibition at 250000 µM in [1] is 23.2 mm; in test [5], 20.7 mm; in test [9], 18.7 mm; in [13], 8.3 mm. For the same molecule, the zone of inhibition at 130000 µM in test [2] stood at 20.3 mm; in test [6] it was 25.3 mm; in test [10] it was 11.7 mm; in test [14], 8 mm. In addition, the zone of inhibition at 60000 µM was 13.2 mm in test [3], 13.3 mm in test [7], 11.3 mm in test [11] and 8.3 mm in test [15]. Besides, the zone of inhibition at 30000 µM in [4] turned out to be 8.8 mm; in test [8], 11.5 mm; in test [12], 8 mm; in test [16], 8 mm.

As to `O=C/C=C/c1ccccc1` [CINNAMALDEHYDE], the zone of inhibition at 250000 µM in [1] was found to be 26.7 mm; in [5] it was 29.7 mm; in [9], 29.5 mm; in test [13] it was 10.5 mm. Also, the zone of inhibition at 130000 µM worked out at 22.3 mm in test [2], 28.7 mm in [6], 11 mm in test [10] and 9 mm in test [14]. Also, the zone of inhibition at 60000 µM in [3] is 16 mm; in test [7], 15 mm; in [11] it was 11 mm; in [15] it was 8 mm. Further, the zone of inhibition at 30000 µM is 8 mm in test [4], 12.2 mm in test [8], 8 mm in test [12] and 8 mm in test [16].

The record behind these values is ChEMBL document CHEMBL3751674, “Synthesis, antimicrobial activity of Schiff base compounds of cinnamaldehyde and amino acids” (2016).
